Measurements from PubChem BioAssay AID330 (DTP/NCI, 2004).
Values joined by “and” are separate entries in the source; they are usually repeats but may differ in a detail not shown here. Identical values can stand only once. Inconclusive results and toxic doses are left out.

Test system: P388 leukemia ip, CD2F1 mice, survival T/C
Experiment: NCI In Vivo Anticancer Drug Screen. Data for tumor model P388 Leukemia (intraperitoneal) in CD2F1 (CDF1) mice
Settings: endpoint: median survival time, higher = longer survival
Summary of the method: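 Mice carrying the transplanted tumor received test compound or vehicle. Survival was recorded in each group, and the value is the treated-group measurement divided by that of the vehicle-treated control group.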

[1] = dose: 12.5 mg/kg/injection, schedule: Q01DX005 (ip), vehicle: saline
[2] = dose: 25.0 mg/kg/injection, schedule: Q01DX005 (ip), vehicle: saline
[3] = dose: 50.0 mg/kg/injection, schedule: Q01DX005 (ip), vehicle: Klucel (hydroxypropylcellulose) (HPC)
[4] = dose: 60.0 mg/kg/injection, schedule: Q01DX005 (ip), vehicle: Klucel (hydroxypropylcellulose) (HPC)
[5] = dose: 120.0 mg/kg/injection, schedule: Q01DX005 (ip), vehicle: Klucel (hydroxypropylcellulose) (HPC)
[6] = dose: 240.0 mg/kg/injection, schedule: Q01DX005 (ip), vehicle: Klucel (hydroxypropylcellulose) (HPC)
[7] = dose: 200.0 mg/kg/injection, schedule: Q01DX005 (ip), vehicle: saline with Tween-80
[8] = dose: 12.5 mg/kg/injection, schedule: Q01DX005 (ip), vehicle: Klucel (hydroxypropylcellulose) (HPC)
[9] = dose: 25.0 mg/kg/injection, schedule: Q01DX005 (ip), vehicle: Klucel (hydroxypropylcellulose) (HPC)
[10] = dose: 50.0 mg/kg/injection, schedule: Q01DX005 (ip), vehicle: saline
[11] = dose: 60.0 mg/kg/injection, schedule: Q01DX005 (ip), vehicle: saline with Tween-80
[12] = dose: 120.0 mg/kg/injection, schedule: Q01DX005 (ip), vehicle: saline with Tween-80
[13] = dose: 240.0 mg/kg/injection, schedule: Q01DX005 (ip), vehicle: saline with Tween-80
[14] = dose: 50.0 mg/kg/injection, schedule: Q01DX009 (ip), vehicle: saline with Tween-80
[15] = dose: 100.0 mg/kg/injection, schedule: Q01DX009 (ip), vehicle: saline with Tween-80
[16] = dose: 100.0 mg/kg/injection, schedule: Q01DX001 (ip), vehicle: saline with Tween-80
[17] = dose: 200.0 mg/kg/injection, schedule: Q01DX001 (ip), vehicle: saline with Tween-80
[18] = dose: 400.0 mg/kg/injection, schedule: Q01DX001 (ip), vehicle: saline with Tween-80
[19] = dose: 200.0 mg/kg/injection, schedule: Q01DX009 (ip), vehicle: saline with Tween-80
[20] = dose: 400.0 mg/kg/injection, schedule: Q01DX009 (ip), vehicle: saline with Tween-80
[21] = dose: 100.0 mg/kg/injection, schedule: Q01DX005 (ip), vehicle: Klucel (hydroxypropylcellulose) (HPC)
[22] = dose: 12.5 mg/kg/injection, schedule: Q01DX005 (ip), vehicle: saline with Tween-80

Compound: NC(=O)c1ncn2c(=O)n(CCCl)nnc12
- T/C (dose: 6.25 mg/kg/injection, schedule: Q01DX005 (ip), vehicle: saline): 181 % of control and 236 % of control
- T/C (dose: 6.7 mg/kg/injection, schedule: Q01DX005 (ip), vehicle: saline): 254 % of control
- T/C (dose: 10.0 mg/kg/injection, schedule: Q01DX005 (ip), vehicle: saline): 565 % of control and 566 % of control
- T/C [1]: 272 % of control and 275 % of control and 297 % of control
- T/C (dose: 15.0 mg/kg/injection, schedule: Q01DX005 (ip), vehicle: saline): 566 % of control and 606 % of control
- T/C (dose: 22.0 mg/kg/injection, schedule: Q01DX005 (ip), vehicle: saline): 393 % of control and 566 % of control
- T/C [2]: 272 % of control and 297 % of control and 306 % of control
- T/C (dose: 33.0 mg/kg/injection, schedule: Q01DX005 (ip), vehicle: saline): 566 % of control and 606 % of control
- T/C [3]: 100 % of control

Compound: O=c1[nH]c2c(c(=O)[nH]1)CCCCCC2
- T/C (dose: 25.0 mg/kg/injection, schedule: Q01DX009 (ip), vehicle: Klucel (hydroxypropylcellulose) (HPC)): 102 % of control and 103 % of control
- T/C (dose: 50.0 mg/kg/injection, schedule: Q01DX009 (ip), vehicle: Klucel (hydroxypropylcellulose) (HPC)): 99 % of control and 103 % of control
- T/C (dose: 100.0 mg/kg/injection, schedule: Q01DX009 (ip), vehicle: Klucel (hydroxypropylcellulose) (HPC)): 91 % of control and 97 % of control
- T/C (dose: 200.0 mg/kg/injection, schedule: Q01DX009 (ip), vehicle: Klucel (hydroxypropylcellulose) (HPC)): 102 % of control and 94 % of control

Compound: Cc1ccc(O)c(CN2CCN(Cc3cc(C)ccc3O)CC2)c1
- T/C [4]: 86 % of control
- T/C [5]: 91 % of control
- T/C [6]: 88 % of control

Compound: COc1cc(Br)c(CC(NC(=O)c2ccccc2)c2ccc(OC)c(OC)c2OC)cc1OC (stereo not given)
- T/C [7]: 91 % of control

Compound: Cc1ccc(S(=O)(=O)OI(C#CC(C)(C)C)c2ccccc2)cc1
- T/C [8]: 102 % of control
- T/C [9]: 102 % of control
- T/C [3]: 101 % of control and 117 % of control

Compound: C=C1CC2C3CCC=C3C(c3ccc(OC)cc3)C2C1=O (stereo not given)
- T/C (dose: 25.0 mg/kg/injection, schedule: Q01DX001 (ip), vehicle: Klucel (hydroxypropylcellulose) (HPC)): 112 % of control
- T/C (dose: 50.0 mg/kg/injection, schedule: Q01DX001 (ip), vehicle: Klucel (hydroxypropylcellulose) (HPC)): 109 % of control
- T/C (dose: 100.0 mg/kg/injection, schedule: Q01DX001 (ip), vehicle: Klucel (hydroxypropylcellulose) (HPC)): 107 % of control and 111 % of control
- T/C (dose: 200.0 mg/kg/injection, schedule: Q01DX001 (ip), vehicle: Klucel (hydroxypropylcellulose) (HPC)): 106 % of control

Compound: N/C=N/OCc1ccccc1
- T/C [10]: 101 % of control
- T/C (dose: 100.0 mg/kg/injection, schedule: Q01DX005 (ip), vehicle: saline): 104 % of control
- T/C (dose: 200.0 mg/kg/injection, schedule: Q01DX005 (ip), vehicle: saline): 105 % of control

Compound: CC(C)C1NC(=O)C2=CN(Cc3ccccc3)C=CC2NC(=O)C(C(C)C)NC(=O)C2=CN(Cc3ccccc3)C=CC2NC1=O (stereo not given)
- T/C [11]: 94 % of control
- T/C [12]: 100 % of control
- T/C [13]: 97 % of control

Compound: COc1cc(C(Nc2ccccn2)c2cc3c(cc2O)OCO3)cc(OC)c1OC (stereo not given)
- T/C [11]: 100 % of control
- T/C [12]: 94 % of control
- T/C [13]: 94 % of control

Compound: O=C(Nc1cccc(C(F)(F)F)c1)C12CC3CC(CC(C3)C1)C2
- T/C (dose: 6.25 mg/kg/injection, schedule: Q01DX009 (ip), vehicle: saline with Tween-80): 98 % of control
- T/C (dose: 12.5 mg/kg/injection, schedule: Q01DX009 (ip), vehicle: saline with Tween-80): 100 % of control
- T/C (dose: 25.0 mg/kg/injection, schedule: Q01DX009 (ip), vehicle: saline with Tween-80): 91 % of control
- T/C [14]: 90 % of control
- T/C [15]: 88 % of control

Compound: CCOc1ccccc1C(=O)Nc1cc(C)nn1-c1ccccc1
- T/C [16]: 102 % of control
- T/C [17]: 100 % of control
- T/C [18]: 106 % of control

Compound: O=C(c1ccccc1)C(CN1CCCC1)CN1CCCC1
- T/C [1]: 100 % of control
- T/C [2]: 97 % of control
- T/C [10]: 100 % of control and 102 % of control

Compound: Cc1ccc(S(=O)(=O)NN=C(C(=O)O)C(=O)O)cc1
- T/C (dose: 12.5 mg/kg/injection, schedule: Q01DX009 (ip), vehicle: distilled water + Tween-80): 101 % of control
- T/C (dose: 25.0 mg/kg/injection, schedule: Q01DX009 (ip), vehicle: distilled water + Tween-80): 102 % of control
- T/C (dose: 50.0 mg/kg/injection, schedule: Q01DX009 (ip), vehicle: distilled water + Tween-80): 100 % of control
- T/C (dose: 200.0 mg/kg/injection, schedule: Q01DX009 (ip), vehicle: distilled water + Tween-80): 90 % of control

Compound: CNC(=O)n1cnc2ccccc21
- T/C [15]: 110 % of control and 111 % of control
- T/C [19]: 105 % of control and 118 % of control
- T/C [20]: 120 % of control and 124 % of control

Compound: CCCCCc1ccccc1O
- T/C [14]: 100 % of control
- T/C [15]: 95 % of control

Compound: S=c1cc(S)sc2c1c(=S)sc1nc3ccccn3c(=S)c12
- T/C [8]: 96 % of control
- T/C [9]: 99 % of control and 98 % of control
- T/C [3]: 96 % of control
- T/C [21]: 107 % of control and 94 % of control

Compound: CCOC(=O)/C(C#N)=C/C=C1/C=CC=CN1N=C(SC)SC
- T/C [16]: 95 % of control
- T/C [17]: 86 % of control
- T/C [18]: 87 % of control

Compound: C/C(=N\NC(=S)N(C)C)c1cnccn1
- T/C [22]: 102 % of control
- T/C (dose: 25.0 mg/kg/injection, schedule: Q01DX005 (ip), vehicle: saline with Tween-80): 100 % of control
- T/C (dose: 50.0 mg/kg/injection, schedule: Q01DX005 (ip), vehicle: saline with Tween-80): 98 % of control and 101 % of control

Compound: CCN(Cc1ccc(C(=O)OC)cc1)c1cccc(NC(C)=O)c1
- T/C [14]: 98 % of control
- T/C [15]: 100 % of control
- T/C [19]: 99 % of control

Compound: CC(=O)Oc1ccc2c(c1)C(=O)CCCCCCC(=O)O2
- T/C (dose: 100.0 mg/kg/injection, schedule: Q01DX001 (ip), vehicle: saline): 101 % of control
- T/C (dose: 200.0 mg/kg/injection, schedule: Q01DX001 (ip), vehicle: saline): 95 % of control
- T/C (dose: 400.0 mg/kg/injection, schedule: Q01DX001 (ip), vehicle: saline): 105 % of control

Compound: Cc1ccc(-c2cc(Cl)c3cc(S(=O)(=O)F)ccc3n2)cc1
- T/C [15]: 104 % of control
- T/C (dose: 100.0 mg/kg/injection, schedule: Q04DX003 (ip), vehicle: saline with Tween-80): 100 % of control
- T/C [19]: 100 % of control
- T/C (dose: 200.0 mg/kg/injection, schedule: Q04DX003 (ip), vehicle: saline with Tween-80): 100 % of control
- T/C [20]: 104 % of control
- T/C (dose: 400.0 mg/kg/injection, schedule: Q04DX003 (ip), vehicle: saline with Tween-80): 100 % of control

Compound: O=C1CSC(c2cccc(Cl)c2)N1N1C(=O)CSC1c1cccc(Cl)c1 (stereo not given)
- T/C [4]: 102 % of control
- T/C [5]: 97 % of control
- T/C [6]: 94 % of control

Compound: O=C(COCC(=O)N/N=C/c1ccc(Cl)cc1)N/N=C/c1ccc(Cl)cc1
- T/C (dose: 6.25 mg/kg/injection, schedule: Q01DX005 (ip), vehicle: saline with Tween-80): 95 % of control
- T/C [22]: 95 % of control
- T/C [7]: 95 % of control

Compound: COc1cc2c(NCCCCCO)ncnc2c(OC)c1OC
- T/C (dose: 50.0 mg/kg/injection, schedule: Q01DX009 (ip), vehicle: saline): 105 % of control
- T/C (dose: 100.0 mg/kg/injection, schedule: Q01DX009 (ip), vehicle: saline): 105 % of control
- T/C (dose: 200.0 mg/kg/injection, schedule: Q01DX009 (ip), vehicle: saline): 102 % of control

Compound: O=C1C=C(OCc2ccccc2)C(=O)C(OCc2ccccc2)=C1
- T/C [3]: 94 % of control
- T/C [21]: 100 % of control
- T/C (dose: 200.0 mg/kg/injection, schedule: Q01DX005 (ip), vehicle: Klucel (hydroxypropylcellulose) (HPC)): 104 % of control

Compound: Cc1c(C)[n+](=O)c2ccc(C=O)cc2n1[O-]
- T/C (dose: 50.0 mg/kg/injection, schedule: Q01DX009 (ip), vehicle: suspension in saline): 97 % of control
- T/C (dose: 100.0 mg/kg/injection, schedule: Q01DX009 (ip), vehicle: suspension in saline): 94 % of control
- T/C (dose: 200.0 mg/kg/injection, schedule: Q01DX009 (ip), vehicle: suspension in saline): 94 % of control
